These results are taken from ChEMBL document CHEMBL4680215, “Substituted 1-methyl-4-phenylpyrrolidin-2-ones - Fragment-based design of N-methylpyrrolidone-derived bromodomain inhibitors” (Eur J Med Chem, 2020).

Some results are limits rather than exact numbers.

In general, IC50 refers to the concentration that inhibits the measured activity by half. Lower therefore signals greater potency in that assay.

The target in the assay is Bromodomain-containing protein 4 (Homo sapiens, UniProt O60885). As to the kind of experiment: Inhibition of GST-tagged BRD4-BD1 (49 to 170 residues) (unknown origin) using Histone H4 peptide as substrate incubated for 1.5 hrs by FRET assay.
For the compound `CCN(CC)S(=O)(=O)c1ccc([C@H]2CC(=O)N(C)C2)c(-c2ccc(OC)c(OC)c2)c1`, the 50% inhibitory concentration (IC50) stood at 14.1 µM. `CCN(CC)S(=O)(=O)c1ccc(C2CC(=O)N(C)C2)c(-c2csc3ccccc23)c1` (stereo not given) registered an IC50 of 2670 µM. `CN1CC(c2ccc(S(=O)(=O)NCCCn3ccnc3)cc2)CC1=O` (stereo not given) registered an IC50 of 1390 µM. The result for `CN1CC(c2ccc(S(=O)(=O)N3CCCCC3)cc2)CC1=O` (stereo not given) reads 144 µM. Take `CCCNS(=O)(=O)c1ccc(C2CC(=O)N(C)C2)cc1` (stereo not given): the IC50 worked out at 147 µM. The result for `CCN(CC)S(=O)(=O)c1ccc(C2CC(=O)N(C)C2)c(-c2ccc(OC)c(OC)c2)c1` (stereo not given) reads 51.6 µM; that for `CC(C)NS(=O)(=O)c1ccc(C2CC(=O)N(C)C2)cc1` (stereo not given), 134 µM; that for `CN1CC(c2ccccc2Br)CC1=O` (stereo not given), 321 µM. `CN1CC(c2ccc(S(=O)(=O)NC34CC5CC(CC(C5)C3)C4)cc2)CC1=O` (stereo not given) came in with an IC50 of 151 µM. As to `CCNS(=O)(=O)c1ccc(C2CC(=O)N(C)C2)cc1` (stereo not given), the IC50 stood at 250 µM. The result for `CCN(CC)S(=O)(=O)c1ccc(C2CC(=O)N(C)C2)c(CCc2ccccc2)c1` (stereo not given) reads 4500 µM; that for `CN1CC(c2ccc(S(=O)(=O)N3CCOCC3)cc2)CC1=O` (stereo not given), 276 µM. The same measure for `CCN(CC)S(=O)(=O)c1ccc(C2CC(=O)N(C)C2)c(-c2ccccc2)c1` (stereo not given): 3200 µM. The result for `CN1CC(c2ccc(S(=O)(=O)N3CCC(c4ccccc4)CC3)cc2)CC1=O` (stereo not given) reads 473 µM; that for `CN1CC(c2ccc(S(=O)(=O)N3CCC[C@H](C(=O)O)C3)cc2)CC1=O` (stereo not given in full), 1960 µM; that for `CN1CC(c2ccc(S(=O)(=O)N3CCC[C@@H](C(=O)O)C3)cc2)CC1=O` (stereo not given in full), 1680 µM.

In turn, `CN1CC(c2ccccc2-c2ccccc2)CC1=O` (stereo not given) displayed an IC50 of 575 µM. The same measure for `CN1CC(c2ccc(S(=O)(=O)NCc3ccccc3)cc2)CC1=O` (stereo not given): 443 µM; for `CN1C[C@H](c2ccccc2)CC1=O`: 1430 µM; for `CCN(CC)S(=O)(=O)c1ccc([C@@H]2CC(=O)N(C)C2)c(-c2ccc(OC)c(OC)c2)c1`: 35.2 µM. The result for `CN1C[C@@H](c2ccccc2)CC1=O` reads 629 µM; that for `CCN(CC)S(=O)(=O)c1ccc(C2CC(=O)N(C)C2)c(-c2ccc(N(C)C)cc2)c1` (stereo not given), 217 µM; that for `CN1CC(c2ccccc2)CC1=O` (stereo not given), 1140 µM. The same measure for `CN1CC(c2ccc(Br)cc2)CC1=O` (stereo not given): 417 µM. `CCN(CC)S(=O)(=O)c1ccc(C2CC(=O)N(C)C2)cc1` (stereo not given) gave an IC50 of 123 µM. The result for `CCN(CC)S(=O)(=O)c1ccc(C2CC(=O)N(C)C2)c(Br)c1` (stereo not given) reads 652 µM; that for `CN1CC(c2ccc(S(=O)(=O)N3C4CCC3CC(=O)C4)cc2)CC1=O` (stereo not given), 223 µM; that for `CN1CC(c2ccc(-c3ccccc3)cc2)CC1=O` (stereo not given), 434 µM.

Compound `CN1CC(c2ccc(S(=O)(=O)N3CCCc4ccccc43)cc2)CC1=O` (stereo not given) came in with an IC50 of 450 µM.

`CCN(CC)S(=O)(=O)c1ccc(C2CC(=O)N(C)C2)c(CCCc2ccccc2)c1` (stereo not given) registered a 50% inhibitory concentration (IC50) above 5000 µM.
